Patent publication US6028195A, “Piperazine derivatives and process for the preparation thereof” (Samjin Pharmaceutical Co., Ltd., priority 1996, dated 2000)
In brackets after ≈: the same amount, converted by molar mass. Where two headings read alike, the source gives them in different places.

Tests used:
[1] = Acute toxicity test (LD50), Litchfield-Wilcoxon method; conditions: mouse, in vivo, ip, male ICR mice, 14 days
Experimental: Acute toxicity test (LD50): Litchfield-Wilcoxon method.
6 weeks old ICR mice(male 30±2.0 g) were fed freely with solid feed and water at room temperature, 23±1° C. and at humidity 60±5%. Sample drugs were injected into the abdominal cavities of mice, while each group comprises 6 mice. Observed during 14 days, external appearances and life or dead were recorded, and then, visible pathogenies were observed from dead animals by dissection. LD50 value was calculated by Litchfiled-wilcoxon method.

[2] = system: mouse leukemia P388 cells; test: In vivo antitumor effects against mouse leukemia P388 cells in BDF1 mice; conditions: P388, ip, abdominal cavity
Experimental: In vivo antitumor effects against mouse leukemia P388 cells.
1) Leukemia P388 cells being transfer-cultured successively in DBA/2 mouse, were grafted into each mouse of a group comprising 8 mice of 6 week old BDF1 mouse with the dose of 1×10^6 cells/0.1 ml. […]
3) With observation everyday, survival times of tested mice were measured. Antitumor activities was determined in such a manner that the increasing ratio(T/C%) of average survival days of drug-treated groups compared with the control group was calculated using the mean survival times of each tested groups.

SKMEL-2 (human melanoma) = test: SRB assay, in vitro antitumor effect against SKMEL-2; type: cell-based; conditions: Homo sapiens; SK-MEL-2, 48 hours; read-out: ED50 (the source's name)
Experimental: (§1) In vitro antitumor effect against human tumor cell lines.
(§2) b. 5×10^3 ~2×10^4 cells were added into each well of 96-well plate and cultured in 5% CO2 incubator, at 37° C., for 24 hours.
(§3) c. Each sample drug was dissolved in a little DMSO and diluted with the used medium to a prescribed concentration for experiments, wherein the final concentration of DMSO was controlled below 0.5%.
(§4) d. Medium of each well cultured for 24 hours as above b. was removed by aspiration. Each 200 μl of drug samples prepared in c. was added into each well and the wells were cultured for 48 hours. Tz(time zero) plates were collected at the point of time drugs were added.
(§5) e. According to the SRB assay method, cell fixing with TCA, staining with 0.4% SRB solution, washing with 1% acetic acid and elution of dye with 10 mM Tris solution were carried out on Tz plates and culture-ended plates, and then, OD values were measured at 520 nm.
(§6) a. Time zero(Tz) value was determined with measuring the SRB protein value at the point of time drugs were added.
(§7) b. Control value(C) was determined with the OD value of an well untreated with drug.
(§8) c. Drug-treated test value(T) was determined with the OD value of drug-treated well.
(§9) d. Effects of drugs were estimated with growth stimulation, net growth inhibition, net killing etc. calculated from Tz, C and T.
(§10) e. If T≥Tz, cellular response function was calculated by 100×(T-Tz)/(C-Tz), and if T<Tz, by 100×(T-Tz)/Tz.

HCT-15 (human colon) = test: SRB assay, in vitro antitumor effect against HCT-15; type: cell-based; conditions: Homo sapiens; HCT 15, 48 hours; read-out: ED50 (the source's name)
Experimental: as §1, §2, §3, §4, §5, §6, §7, §8, §9, §10

SKOV-3 (human ovarian) = test: SRB assay, in vitro antitumor effect against SKOV-3; type: cell-based; conditions: Homo sapiens; SK-OV-3, 48 hours; read-out: ED50 (the source's name)
Experimental: as §1, §2, §3, §4, §5, §6, §7, §8, §9, §10

[3] = system: A549 (human non-small lung cell); test: SRB assay, in vitro antitumor effect against A549; type: cell-based; conditions: Homo sapiens; A549, 48 hours; read-out: ED50 (the source's name)
Experimental: as §1, §2, §3, §4, §5, §6, §7, §8, §9, §10

XF 498 (human CNS) = test: SRB assay, in vitro antitumor effect against XF 498; type: cell-based; conditions: Homo sapiens, XF498; XF-498, 48 hours; read-out: ED50 (the source's name)
Experimental: as §1, §2, §3, §4, §5, §6, §7, §8, §9, §10

[4] = on days 1, 5, 9, read-out: T/C(%)
[5] = nine everyday, read-out: T/C(%)

CCCc1cc(NC(=O)N2CCN(c3cc(OC)cc(OC)c3)CC2)c(OC)nc1C [Example 8, 1-[(2-Methoxy-6-methyl-5-propylpyridin-3-yl)aminocarbonyl]-4-(3,5-dimethoxyphenyl)piperazine]
LD50 at 336 h [1]: 707 mg/kg
response vs control in vivo at 100 mg/kg [2, 4]: 104%
response vs control in vivo at 200 mg/kg [2, 4]: 141%

CCc1nc(OC)c(NC(=O)N2CCN(c3cc(OC)cc(OC)c3)CC2)cc1C [Example 12, 1-[(6-Ethyl-2-methoxy-5-methylpyridin-3-yl)aminocarbonyl]-4-(3,5-dimethoxyphenyl)piperazine]
LD50 at 336 h [1]: 165 mg/kg

CCc1nc(OC)c(NC(=O)N2CCN(c3cc(C)cc(C)c3)CC2)cc1C [Example 13, 1-[(6-Ethyl-2-methoxy-5-methylpyridin-3-yl)aminocarbonyl]-4-(3,5-dimethylphenyl)piperazine]
LD50 at 336 h [1]: 285 mg/kg

CCCc1nc(OC)c(NC(=O)N2CCN(c3cc(OC)cc(OC)c3)CC2)cc1C [Example 15, 1-[(2-Methoxy-5-methyl-6-propylpyridin-3-yl)aminocarbonyl]-4-(3,5-dimethoxyphenyl)piperazine]
IC50 (SKMEL-2 (human melanoma)): 0.052 µg/mL (≈ 0.121 µM)
LD50 at 336 h [1]: 190 mg/kg
IC50 (HCT-15 (human colon)): 0.038 µg/mL (≈ 0.0887 µM)
response vs control in vivo at 10 mg/kg [2, 5]: 110%
response vs control in vivo at 25 mg/kg [2, 5]: 150%
IC50 (SKOV-3 (human ovarian)): 0.05 µg/mL (≈ 0.117 µM)
IC50 [3]: 0.002 µg/mL (≈ 0.00467 µM)
IC50 (XF 498 (human CNS)): 0.035 µg/mL (≈ 0.0817 µM)

CCCc1nc(OC)c(NC(=O)N2CCN(c3cc(C)cc(C)c3)CC2)cc1C [Example 16, 1-[(2-Methoxy-5-methyl-6-propylpyridin-3-yl)aminocarbonyl]-4-(3,5-dimethylphenyl)piperazine]
IC50 (SKMEL-2 (human melanoma)): 0.038 µg/mL (≈ 0.0958 µM)
LD50 at 336 h [1]: 283 mg/kg
IC50 (HCT-15 (human colon)): 0.061 µg/mL (≈ 0.154 µM)
response vs control in vivo at 25 mg/kg [2, 5]: 110%
response vs control in vivo at 50 mg/kg [2, 5]: 165%
IC50 (SKOV-3 (human ovarian)): 0.04 µg/mL (≈ 0.101 µM)
IC50 [3]: 0.008 µg/mL (≈ 0.0202 µM)
IC50 (XF 498 (human CNS)): 0.005 µg/mL (≈ 0.0126 µM)

COc1nc(C)c(C)cc1NC(=S)N1CCN(c2cc(C)cc(C)c2)CC1 [Example 22, 1-[(5,6-Dimethyl-2-methoxypyridin-3-yl)aminothiocarbonyl]-4-(3,5-dimethylphenyl)piperazine]
IC50 (SKMEL-2 (human melanoma)): 0.027 µg/mL (≈ 0.0702 µM)
LD50 at 336 h [1]: > 2000 mg/kg
IC50 (HCT-15 (human colon)): 0.01 µg/mL (≈ 0.026 µM)
response vs control in vivo at 25 mg/kg [2, 5]: 110%
response vs control in vivo at 50 mg/kg [2, 5]: 140%
response vs control in vivo at 100 mg/kg [2, 5]: 150%
IC50 (SKOV-3 (human ovarian)): 0.006 µg/mL (≈ 0.0156 µM)
IC50 [3]: 0.0009 µg/mL (≈ 0.00234 µM)
IC50 (XF 498 (human CNS)): 0.0053 µg/mL (≈ 0.0138 µM)

CCCc1nc(OC)c(NC(=S)N2CCN(c3cccc(O)c3)CC2)cc1C [Example 28, 1-[(2-Methoxy-5-methyl-6-propylpyndin-3-yl)aminothiocarbonyl]-4-(3-hydroxyphenyl)piperazine]
IC50 (SKMEL-2 (human melanoma)): 0.001 µg/mL (≈ 0.0025 µM)
LD50 at 336 h [1]: > 2000 mg/kg
IC50 (HCT-15 (human colon)): 0.05 µg/mL (≈ 0.125 µM)
IC50 (SKOV-3 (human ovarian)): 0.07 µg/mL (≈ 0.175 µM)
IC50 [3]: 0.06 µg/mL (≈ 0.15 µM)
IC50 (XF 498 (human CNS)): 0.41 µg/mL (≈ 1.02 µM)

COc1cc(OC)cc(N2CCN(C(=O)Nc3cc(C(C)O)c(C)nc3OC)CC2)c1 (stereo not drawn) [Example 56, 1-{[5-(1-Hydroxyethyl)-2-methoxy-6-methylpyridin-3-yl]aminocarbonyl}-4-(3,5-dimethoxyphenyl)piperazine]
IC50 (SKMEL-2 (human melanoma)): 0.01 µg/mL (≈ 0.0232 µM)
LD50 at 336 h [1]: 410 mg/kg
IC50 (HCT-15 (human colon)): 0.045 µg/mL (≈ 0.105 µM)
response vs control in vivo at 10 mg/kg [2, 5]: 140%
response vs control in vivo at 25 mg/kg [2, 5]: 145%
response vs control in vivo at 50 mg/kg [2, 5]: 165%
response vs control in vivo at 50 mg/kg [2, 4]: 118%
response vs control in vivo at 100 mg/kg [2, 4]: 141%
response vs control in vivo at 200 mg/kg [2, 4]: 227%
IC50 (SKOV-3 (human ovarian)): 0.0027 µg/mL (≈ 0.00627 µM)
IC50 [3]: 0.017 µg/mL (≈ 0.0395 µM)
IC50 (XF 498 (human CNS)): 0.013 µg/mL (≈ 0.0302 µM)

COc1nc(C)c(C(C)O)cc1NC(=O)N1CCN(c2cc(C)cc(C)c2)CC1 (stereo not drawn) [Example 57, 1-{[5-(1-Hydroxyethyl)-2-methoxy-6-methylpyridin-3-yl]aminocarbonyl}-4-(3,5-dimethylphenyl)piperazine]
IC50 (SKMEL-2 (human melanoma)): 0.18 µg/mL (≈ 0.452 µM)
LD50 at 336 h [1]: 455 mg/kg
IC50 (HCT-15 (human colon)): 0.25 µg/mL (≈ 0.627 µM)
IC50 (SKOV-3 (human ovarian)): 0.15 µg/mL (≈ 0.376 µM)
IC50 [3]: 0.27 µg/mL (≈ 0.678 µM)
IC50 (XF 498 (human CNS)): 0.22 µg/mL (≈ 0.552 µM)
